Measured values: US12649751B2 (Arcus Biosciences, Inc., priority 2022, dated 2026)
Read-outs that look alike come from different tables or passages of the source.

Tests used:
HPK1 = HPK1 (Homo sapiens, UniProt Q92918); assay: HPK1 Biochemical Assay (ADP-Glo luminescence; low ATP 10 μM or high ATP 200 μM)
[1] = system: p-SLP-76 (Ser376) in Jurkat cells; assay: pSLP76 Cellular Assay (AlphaLISA SureFire Ultra p-SLP-76 (Ser376), anti-CD3 activated Jurkat cells); format: cell-based; settings: Homo sapiens, read-out: Cellular Potency
In short: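 Jurkat cells, serum-starved overnight in Opti-MEM then in HBSS, preincubated 1 h at 37 °C with 22-point 2-fold compound dilutions, then stimulated with anti-CD3 (0.025 mg/ml added solution) for 45 min. Lysate p-SLP-76 (Ser376) measured by AlphaLISA at 570 nm; IC50 from 4-parameter logistic fit.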

[2] = HPK1 ADP-Glo assay, high ATP (200 μM ATP, 5 nM HPK1), read-out: Biochemical Potency (high ATP)
[3] = pSLP76 (Ser376) AlphaLISA, anti-CD3 activated Jurkat cells
[4] = 2 nM HPK1, 10 μM ATP, read-out: Biochemical Potency (low ATP)
[5] = Jurkat cells, anti-CD3 stimulation, pSLP76
[6] = HPK1 ADP-Glo assay, low ATP (10 μM ATP, 2 nM HPK1), read-out: Biochemical Potency (low ATP)

Sequence of HPK1 (Q92918 whole entry, species assumed): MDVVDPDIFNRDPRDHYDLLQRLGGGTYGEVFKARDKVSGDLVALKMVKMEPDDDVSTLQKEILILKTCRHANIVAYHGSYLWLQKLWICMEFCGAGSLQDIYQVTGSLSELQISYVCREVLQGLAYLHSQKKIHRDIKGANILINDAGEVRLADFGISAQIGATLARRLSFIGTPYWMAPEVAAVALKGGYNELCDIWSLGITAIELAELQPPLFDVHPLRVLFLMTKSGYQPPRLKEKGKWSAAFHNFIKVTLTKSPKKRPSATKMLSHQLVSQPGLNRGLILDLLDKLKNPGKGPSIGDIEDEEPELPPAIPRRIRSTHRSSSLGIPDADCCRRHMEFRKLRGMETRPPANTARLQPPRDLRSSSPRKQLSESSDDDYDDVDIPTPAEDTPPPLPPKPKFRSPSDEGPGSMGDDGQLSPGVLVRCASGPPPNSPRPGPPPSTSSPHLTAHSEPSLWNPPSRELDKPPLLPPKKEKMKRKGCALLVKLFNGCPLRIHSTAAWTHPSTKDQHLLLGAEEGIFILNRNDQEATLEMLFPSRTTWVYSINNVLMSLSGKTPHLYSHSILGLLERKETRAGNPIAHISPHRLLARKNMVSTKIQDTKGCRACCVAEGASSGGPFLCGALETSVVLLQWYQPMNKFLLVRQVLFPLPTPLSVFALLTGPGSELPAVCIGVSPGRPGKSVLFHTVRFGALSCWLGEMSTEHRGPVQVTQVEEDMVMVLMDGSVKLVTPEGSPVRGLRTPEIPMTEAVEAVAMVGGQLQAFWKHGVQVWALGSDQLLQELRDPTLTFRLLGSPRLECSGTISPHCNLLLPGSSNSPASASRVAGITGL

SMILES | IC50 (HPK1; [2]) [nM] | IC50 [1, 3] [nM] | IC50 (HPK1; [4]) [nM] | IC50 [1, 5] [nM] | IC50 (HPK1; [6]) [nM]
Cc1cc(Nc2cc3nc(-c4cccc(CC(=O)N(C)C)c4)sc3cn2)nc(N2C[C@@H]3C[C@H]2CN3C)n1 [Example 395] | 100 to 1000 | 100 to 1000 |  |  | 
Cc1cc(Nc2cc3nc(-c4cnn(CC5CC5(F)F)c4)sc3cn2)nc(N2C[C@@H]3C[C@H]2CN3C)n1 (stereo partly drawn) [Example 380] | < 100 | 1000 to 5000 |  |  | 
Cc1cc(Nc2cc3nc(-c4cccc(C(=O)N(C)[C@@H](C)CO)c4)sc3cn2)nc(N2C[C@@H]3C[C@H]2CN3C)n1 [Example 561] | < 100 | 100 to 1000 |  |  | 
Cc1cccnc1-c1nc2cc(Nc3ccc([C@H]4CCOC4)c(CN4CCCC4)n3)ncc2s1 (single isomer, unassigned) [Example 258, N-[2-(3-Methylpyridin-2-yl)-[1,3]thiazolo[5,4-c]pyridin-6-yl]-5-[(3R or 3S)-oxolan-3-yl]-6-[(pyrrolidin-1-yl)methyl]pyridin-2-amine] |  |  | < 100 | 100 to 1000 | 
CN1C[C@@H]2C[C@H]1CN2c1nccc(Nc2cc3nc(-c4cccc(S(=O)(=O)N(C)C)c4)sc3cn2)n1 [Example 289, N,N-dimethyl-3-[6-({2-[(1S,4S)-5-methyl-2,5-diazabicyclo[2.2.1]heptan-2-yl]pyrimidin-4-yl}amino)-[1,3]thiazolo[5,4-c]pyridin-2-yl]benzene-1-sulfonamide] |  |  | < 100 | 100 to 1000 | 
Cc1cc(Nc2cc3nc(-c4ncccc4C)sc3cn2)nc(N2C[C@@H]3C[C@H]2CN3)n1 [Example 407] | < 100 | < 100 |  |  | < 100
CN1C[C@@H]2C[C@H]1CN2c1cccc(Nc2cc3nc(-c4cccnc4)sc3cn2)n1 [Example 89, 6-[(1S,4S)-5-Methyl-2,5-diazabicyclo[2.2.1]heptan-2-yl]-N-[2-(pyridin-3-yl)-[1,3]thiazolo[5,4-c]pyridin-6-yl]pyridin-2-amine] |  |  | < 100 | 100 to 1000 | 
COCc1c(-c2nc3cc(Nc4cc(C)nc(N5C[C@@H]6C[C@H]5CN6C)n4)ncc3s2)cnn1C [Example 351] | < 100 | < 100 |  |  | 
CC(=O)N1CCc2c(cccc2-c2nc3cc(Nc4cc(C)nc(N5C[C@@H]6C[C@H]5CN6C)n4)ncc3s2)C1 [Example 389] | 100 to 1000 | 1000 to 5000 |  |  | 
CCN1C[C@@H]2C[C@H]1CN2c1nc(C)cc(Nc2cc3nc(-c4cccc(C(=O)N5CCC(F)CC5)c4)sc3cn2)n1 [Example 538] | < 100 | < 100 |  |  | 
Cc1cc(Nc2cc3nc(-c4cccc(-c5ccn(C)n5)c4)sc3cn2)nc(N2C[C@@H]3C[C@H]2CN3C)n1 [Example 365] | < 100 | 5000 to 25000 |  |  | 
Cc1cc(Nc2cc3nc(-c4cnn(CC(F)F)c4)sc3cn2)nc(N2C[C@@H]3C[C@H]2CN3C)n1 [Example 375] | < 100 | 100 to 1000 |  |  | 
c1cnn(-c2nc3cc(Nc4cncc(N5C[C@@H]6C[C@H]5CN6)n4)ncc3s2)c1 [Example 430] | < 100 | 100 to 1000 |  |  | < 100
Cc1cccnc1-c1nc2cc(Nc3ccc4c(n3)[C@@](C)(N)CC4)ncc2s1 [Example 576] |  | 1000 to 5000 |  |  | < 100
Cc1c(-c2nc3cc(Nc4cccc(N5C[C@@H]6C[C@H]5CN6C)n4)ncc3s2)cnc2c1NCCO2 [Example 134, N-(2-{8-Methyl-1H,2H,3H-pyrido[2,3-b][1,4]oxazin-7-yl}-[1,3]thiazolo[5,4-c]pyridin-6-yl)-6-[(1S,4S)-5-methyl-2,5-diazabicyclo[2.2.1]heptan-2-yl]pyridin-2-amine] |  |  | < 100 | 1000 to 5000 | 
CCN1C[C@@H]2C[C@H]1CN2c1nc(C)cc(Nc2cc3nc(-c4cc(C)cc(N5C(=O)CC[C@H]5C)c4)sc3cn2)n1 [Example 466] | < 100 | 100 to 1000 |  |  | 
Cc1cc(Nc2cc3nc(-c4ccc(=O)n(C)c4)sc3cn2)nc(N2C[C@@H]3C[C@H]2CN3C)n1 [Example 391] | 100 to 1000 | 1000 to 5000 |  |  | 
Cc1cc(Nc2cc3nc(-c4cccc(OC(F)F)c4)sc3cn2)nc(N2C[C@@H]3C[C@H]2CN3C)n1 [Example 390] | < 100 | 100 to 1000 |  |  | 
CN1C[C@@H]2C[C@H]1CN2c1cccc(Nc2cc3nc(-n4cccn4)sc3cn2)n1 [Example 206, 6-[(1S,4S)-5-Methyl-2,5-diazabicyclo[2.2.1]heptan-2-yl]-N-[2-(1H-pyrazol-1-yl)-[1,3]thiazolo[5,4-c]pyridin-6-yl]pyridin-2-amine] |  |  | < 100 | 100 to 1000 | 

SMILES | IC50 (HPK1; [2]) [nM] | IC50 [1, 3] [nM] | IC50 (HPK1; [4]) [nM] | IC50 [1, 5] [nM] | IC50 (HPK1; [6]) [nM]
CCN1C[C@@H]2C[C@H]1CN2c1nc(C)cc(Nc2cc3nc(-c4cccc(C(=O)N[C@H](C)C5CC5)c4)sc3cn2)n1 [Example 524] | < 100 | < 100 |  |  | 
COc1cccc(F)c1-c1nc2cc(Nc3cccc(N4CC5CCC4CN5C)n3)ncc2s1 (stereo not drawn) [Example 79, N-[2-(2-Fluoro-6-methoxyphenyl)-[1,3]thiazolo[5,4-c]pyridin-6-yl]-6-{5-methyl-2,5-diazabicyclo[2.2.2]octan-2-yl}pyridin-2-amine] |  |  | < 100 | 1000 to 5000 | 
Cc1ccc(Nc2cc3nc(-c4ncccc4C)sc3cn2)nc1CN1CCCC1 [Example 41, 5-Methyl-N-[2-(3-methylpyridin-2-yl)-[1,3]thiazolo[5,4-c]pyridin-6-yl]-6-[(pyrrolidin-1-yl)methyl]pyridin-2-amine] |  |  | < 100 | 1000 to 5000 | 
Cc1cccnc1-c1nc2cc(Nc3cc(-c4cnccc4C#N)cc(N4C[C@@H]5C[C@H]4CN5C)n3)ncc2s1 [Example 434] | < 100 | 100 to 1000 |  |  | 
CCN1C[C@@H]2C[C@H]1CN2c1nc(C)cc(Nc2cc3nc(-c4cncc(OCC5CC5)c4)sc3cn2)n1 [Example 422] | < 100 | 100 to 1000 |  |  | 
CCN1C[C@@H]2C[C@H]1CN2c1nc(C)cc(Nc2cc3nc(-c4cncc(N5C(=O)OC[C@H]5C)c4)sc3cn2)n1 [Example 295, (4R)-3-{5-[6-({2-[(1S,4S)-5-ethyl-2,5-diazabicyclo[2.2.1]heptan-2-yl]-6-methylpyrimidin-4-yl}amino)-[1,3]thiazolo[5,4-c]pyridin-2-yl]pyridin-3-yl}-4-methyl-1,3-oxazolidin-2-one] | < 100 | 100 to 1000 |  |  | 
Cc1cccnc1-c1nc2cc(Nc3ccc(C)c(N4CCC[C@H](N)C4)n3)ncc2s1 [Example 71, 6-[(3S)-3-Aminopiperidin-1-yl]-5-methyl-N-[2-(3-methylpyridin-2-yl)-[1,3]thiazolo[5,4-c]pyridin-6-yl]pyridin-2-amine] |  |  | < 100 | 1000 to 5000 | 
Cc1cc(Nc2cc3nc(-c4cccnc4)sc3cn2)nc(N2C[C@@H]3C[C@H]2CN3Cc2ccccc2)n1 [Example 490] | < 100 | 100 to 1000 |  |  | 
Cc1cccnc1-c1nc2cc(Nc3cccc(N4CC5CCC4CN5C)n3)ncc2s1 (stereo not drawn) [Example 97, 6-{5-Methyl-2,5-diazabicyclo[2.2.2]octan-2-yl}-N-[2-(3-methylpyridin-2-yl)-[1,3]thiazolo[5,4-c]pyridin-6-yl]pyridin-2-amine] |  |  | < 100 | 1000 to 5000 | 
CN(C)Cc1nc(Nc2cc3nc(-c4c(F)cccc4F)sc3cn2)ccc1C1CCOC1 (stereo not drawn) [Example 257, N-[2-(2,6-Difluorophenyl)-[1,3]thiazolo[5,4-c]pyridin-6-yl]-6-[(dimethylamino)methyl]-5-(oxolan-3-yl)pyridin-2-amine] |  |  | < 100 | 1000 to 5000 | 
CNS(=O)(=O)c1cccc(-c2nc3cc(Nc4cncc(N5C[C@@H]6C[C@H]5CN6C)n4)ncc3s2)c1 [Example 416] |  | 100 to 1000 |  |  | < 100
Cc1cccnc1-c1nc2cc(Nc3ccc(C4CCOCC4)c(N4C[C@@H]5C[C@H]4CN5)n3)ncc2s1 [Example 432] |  | < 100 |  |  | < 100
CCN(CC)C(=O)c1cccc(-c2nc3cc(Nc4cc(C)nc(N5C[C@@H]6C[C@H]5CN6CCO)n4)ncc3s2)c1 [Example 504] | < 100 | < 100 |  |  | 
CCN1C[C@@H]2C[C@H]1CN2c1nc(C)cc(Nc2cc3nc(-c4cccc(C(=O)NC5CCOC5)c4)sc3cn2)n1 (stereo partly drawn) [Example 556] | < 100 | < 100 |  |  | 
Cc1cccc(F)c1-c1nc2cc(Nc3ccc(C4CCOC4)c(CN(C)C)n3)ncc2s1 (stereo not drawn) [Example 255, 6-[(Dimethylamino)methyl]-N-[2-(2-fluoro-6-methylphenyl)-[1,3]thiazolo[5,4-c]pyridin-6-yl]-5-(oxolan-3-yl)pyridin-2-amine] |  |  | < 100 | 100 to 1000 | 
Cc1cc(Nc2cc3nc(-c4ccnc(N5CCOC[C@H]5C)c4)sc3cn2)nc(N2C[C@@H]3C[C@H]2CN3CCO)n1 [Example 450] | < 100 | < 100 |  |  | 
Cc1cc(Nc2cc3nc(-c4cccc(C(=O)N(C)C5CCCC5)c4)sc3cn2)nc(N2C[C@@H]3C[C@H]2CN3CCO)n1 [Example 544] | < 100 | < 100 |  |  | 
Cc1cc(Nc2cc3nc(-c4ccnc(C5CCOCC5)c4)sc3cn2)nc(N2C[C@@H]3C[C@H]2CN3C)n1 [Example 480] | < 100 | 100 to 1000 |  |  | 
Cc1cc(Nc2cc3nc(-c4cnn5c4CCCC5)sc3cn2)nc(N2C[C@@H]3C[C@H]2CN3C)n1 [Example 379] | < 100 | 1000 to 5000 |  |  | 
